Consider 33 molecules from patent US11912695B2, “Benzodiazepine derivatives as RSV inhibitors” (ENANTA PHARMACEUTICALS, INC., priority 2019, dated 2024).

Experiment [1] concerns Human RSV-A (“Long” strain). Description: RSV-A assay (CPE, ATPlite) in Hep-2 cells. Particulars: human respiratory syncytial virus, 120 h, MOI 0.1, 5-day incubation, ATPlite readout. The format is cell-based. The text has this: Hep-2 cells, (originally derived from tumors grown in irradiated-cortisonised weanling rats that had been injected with epidermoid carcinoma tissue from a person's larynx, but later found to be indistinguishable from HeLa cells by PCR DNA analysis), were used for the culturing of genotype A, “Long” strain RSV. Flasks were inoculated with RSV and viral stocks were collected once cytopathic effect (CPE) was greater than 90%. Viral stocks in 25% sucrose media were snap frozen using liquid nitrogen to increase viral stability. Viral stock titers were quantified by tissue culture infectious dose 50% (TCID50) using 8,000 cells per well and 3-fold viral dilutions across a 96-well plate, cultured for 4 days. Viral stock titers were also quantified by a plaque forming unit assay, as described elsewhere.
Following extensive parameter testing, the final assay is run as follows: Hep-2 cells are seeded into the inner 60 wells of a 96-well plate at 8,000 cells per well in a volume of 50 μL using Growth Media (DMEM without phenol red, 1% L-Glut, 1% Penn/Strep, 1% nonessential amino acids, 10% heat-inactivated FBS). 2-fold serial dilutions of control and test compounds are added to the wells in duplicate in a total volume of 25 μL. Viral stock is then added to the wells at a multiplicity of infection (MOI) of 0.1 in a volume of 25 μL, bringing the total volume of each well to 100 μL. The MOI is calculated using the PFU/mL, or TCID50 if unavailable. Each 96-well plate has a control column of 6 wells with cells and virus but no compound (negative control, max CPE), a column with cells but no compound or virus (positive control, minimum CPE), and a column with no cells or virus or compound (background plate/reagent control). The control wells with cells but no virus are given an additional 25 μL of growth media containing an equal quantity of sucrose as those wells receiving the viral stock in order to keep consistent in media and volume conditions. The outer wells of the plate are filled with 125 μL of moat media (DMEM, 1% Penn/Strep) to act as a thermal and evaporative moat around the test wells. Following a 5-day incubation period, the plates are read using ATPlite (50 μL added per well), which quantifies the amount of ATP (a measure of cell health) present in each well. Assay plates are read using the Envision luminometer. In parallel, cytotoxicity is examined on an additional 96-well plate treated in an identical manner, but substituting the 25 μL of viral stock for 25 μL of growth media. […] EC50 ranges are as follows: A<0.4 μM; B 0.4-0.8 μM; C>0.8 μM.
For orientation: Cellular ATP, detected with luciferase, serves as a proxy for viable cell number.

In experiment [2] the test system is Human RSV-B (genotype B, strain 9320). As to the kind of experiment: RSV-B assay (qPCR or ATPlite) in A549 cells. The class given is cell-based. Particulars: human respiratory syncytial virus, 144 h, strain 9320, MOI 0.5, 6 days post infection, qPCR or ATPlite readout. The text has this:
Hep-2 cells, (originally derived from tumors grown in irradiated-cortisonised weanling rats that had been injected with epidermoid carcinoma tissue from a person's larynx, but later found to be indistinguishable from HeLa cells by PCR DNA analysis), were used for the culturing of genotype B, strain 9320. Flasks were inoculated with RSV-B and viral stocks were collected once cytopathic effect (CPE) was greater than 90%. Viral stocks in 25% sucrose media were snap frozen using liquid nitrogen to increase viral stability. Viral stock titers were quantified by tissue culture infectious dose 50% (TCID50) using 8,000 cells per well and 5-fold viral dilutions across a 96-well plate, cultured for 4 days. Viral stock titers were also quantified by a plaque forming unit assay, as described elsewhere.
The assay is run as follows: A549 cells (originally derived through explant culture from a person's carcinomatous lung tissue) are seeded into the inner 60 wells of a 96-well plate at 3,000 cells per well in a volume of 50 μL using A549 growth media (F-12K Media, 1% Penn/Strep, 1% nonessential amino acids, 10% heat-inactivated FBS). 2-fold serial dilutions of control and test compounds are added to the wells in duplicate in a total volume of 25 μL. Viral stock is then added to the wells at a multiplicity of infection (MOI) of 0.5 in a volume of 25 μL, bringing the total volume of each well to 100 μL. The MOI is calculated using the PFU/mL, or TCID50 if unavailable. Each 96-well plate has a control column of 6 wells with cells and virus but no compound (negative control, max CPE), a column with cells but no compound or virus (positive control, minimum CPE), and a column with no cells or virus or compound (background plate/reagent control). The control wells with cells but no virus are given an additional 25 μL of growth media containing an equal quantity of sucrose as those wells receiving the viral stock in order to keep consistent in media and volume conditions. The outer wells of the plate are filled with 125 μL of moat media (DMEM, 1% Penn/Strep) to act as a thermal and evaporative moat around the test wells. 6 days post infection, the plates are read using qPCR or ATP lite (50 μL added per well), which quantifies the amount of ATP (a measure of cell health) present in each well. Assay plates treated with APTlite are read using the Envision luminometer. […] EC50 ranges are as follows: A<0.4 μM; B 0.4-0.8 μM; C>0.8 μM.

Regarding `CCc1ncc(-c2sc(C)nc2-c2nnc(N[C@H]3N=C(c4ccccc4)c4cccc(F)c4NC3=O)o2)cn1` [Example 36], the EC50 in experiment [1] and in experiment [2] was less than 400 nM in each case.

Consider `CCc1ncc(-c2sc(C(F)(F)F)nc2-c2nnc(NC3N=C(c4ccccc4)c4ccccc4NC3=O)o2)cn1` (stereo not drawn) [Example 35], for which the EC50 in experiment [1] and in experiment [2] was less than 400 nM each time.

For the molecule `O=C1Nc2c(F)cccc2C(c2ccccc2)=N[C@@H]1Nc1nnc(-c2ncc(C(F)(F)F)cc2-c2cnc(C3CC3)nc2)o1` [Example 24], the EC50 in experiment [1] and in experiment [2] was less than 400 nM each time.

For `CCc1ncc(-c2sc(C3CCC3)nc2-c2nnc(N[C@@H]3N=C(c4ccccc4)c4cccc(F)c4NC3=O)o2)cn1` [Example 59], the EC50 in experiment [1] and in experiment [2] was less than 400 nM each time.

For `O=C1Nc2ccccc2C(c2ccccc2)=NC1Nc1nnc(-c2ncc(C(F)(F)F)cc2-c2cnc(C3CCC3)nc2)o1` (stereo not drawn) [Example 13], the EC50 (as a rule, the concentration needed to bring the measured effect to its halfway point) is 400 to 800 nM in experiment [1] and less than 400 nM in experiment [2].

For the molecule `C#Cc1ncc(-c2cc(C(F)(F)F)cnc2-c2nnc(NC3N=C(c4ccccc4)c4ccccc4NC3=O)o2)cn1` (stereo not drawn) [Example 19], the values for the EC50 in experiment [1] and in experiment [2] were more than 800 nM and 400 to 800 nM, respectively.

Take `O=C1Nc2ccccc2C(c2ccccc2)=NC1Nc1nnc(-c2ncc(C(F)(F)F)cc2-c2cnc(C(F)(F)F)nc2)o1` (stereo not drawn) [Example 10]: the concentration for a half-maximal effect (EC50) in experiment [1] and in experiment [2] was more than 800 nM each time.

For the molecule `O=C1Nc2ccccc2C(c2ccccc2)=N[C@@H]1Nc1nnc(-c2ccc(C(F)(F)F)nc2-c2cnc(C3CC3)nc2)o1` [Example 22], the values for the EC50 in experiment [1] and in experiment [2] were 400 to 800 nM and less than 400 nM, respectively.

For `O=C1Nc2c(F)cccc2C(c2ccccc2)=N[C@@H]1Nc1nnc(-c2nc(C3CCC3)sc2-c2cnc(C3CC3)nc2)o1` [Example 65], the half-maximal effective concentration (EC50) in experiment [1] and in experiment [2] was less than 400 nM each time.

With `Cc1ncc(-c2cc(C(F)(F)F)cnc2-c2nnc(NC3N=C(c4ccccc4)c4ccccc4NC3=O)o2)cn1` (stereo not drawn) [Example 1], the concentration for a half-maximal effect (EC50) in experiment [1] and in experiment [2] was less than 400 nM in each case.

`CCc1ncc(-c2sc(C3CC3)nc2-c2nnc(N[C@@H]3N=C(c4ccccc4)c4ccccc4NC3=O)o2)cn1` [Example 49]: the values for the half-maximal effective concentration (EC50) in experiment [1] and in experiment [2] were 400 to 800 nM and less than 400 nM, respectively.

Consider `Cc1ncc(-c2cc(C(F)(F)F)cnc2-c2nnc(N[C@H]3N=C(c4ccccc4)c4cccc(F)c4NC3=O)o2)cn1` [Example 27], for which the 50% effective concentration (EC50) in experiment [1] and in experiment [2] was less than 400 nM each time.

In the case of `Cc1ncc(-c2sc(C3CC3)nc2-c2nnc(N[C@@H]3N=C(c4ccccc4)c4cccc(F)c4NC3=O)o2)cn1` [Example 55], the 50% effective concentration (EC50) is more than 800 nM in experiment [1] and less than 400 nM in experiment [2].

Consider `Cc1ncc(-c2sc(C3CCC3)nc2-c2nnc(N[C@H]3N=C(c4ccccc4)c4cccc(F)c4NC3=O)o2)cn1` [Example 61], for which the EC50 in experiment [1] and in experiment [2] was less than 400 nM in each case.

For `Cc1ncc(-c2sc(C)nc2-c2nnc(N[C@H]3N=C(c4ccccc4)c4cccc(F)c4NC3=O)o2)cn1` [Example 39], the EC50 in experiment [1] and in experiment [2] was less than 400 nM throughout.

As for `CCc1ncc(-c2sc(C3(C(F)(F)F)CC3)nc2-c2nnc(N[C@@H]3N=C(c4ccccc4)c4ccccc4NC3=O)o2)cn1` [Example 70], the EC50 in experiment [1] and in experiment [2] was more than 800 nM throughout.

`CCc1ncc(-c2cc(C(F)(F)F)cnc2-c2nnc(N[C@H]3N=C(c4ccccc4)c4ccccc4NC3=O)o2)cn1` [Example 29]: the half-maximal effective concentration (EC50) in experiment [1] and in experiment [2] was less than 400 nM in each case.

On to `Cc1ncc(-c2sc(C)nc2-c2nnc(N[C@@H]3N=C(c4ccccc4)c4cccc(F)c4NC3=O)o2)cn1` [Example 38], for which the concentration for a half-maximal effect (EC50) in experiment [1] and in experiment [2] was less than 400 nM each time.

As for `O=C1Nc2ccccc2C(c2ccccc2)=NC1Nc1nnc(-c2cccnc2-c2cnc(C3CC3)nc2)o1` (stereo not drawn) [Example 23], the results for the half-maximal effective concentration (EC50) in experiment [1] and in experiment [2] were more than 800 nM and less than 400 nM, respectively.

Regarding `O=C1Nc2ccccc2C(c2ccccc2)=N[C@@H]1Nc1nnc(-c2ncc(C3CC3)cc2-c2cnc(C3CC3)nc2)o1` [Example 77], the EC50 in experiment [1] and in experiment [2] was less than 400 nM in each case.

On to `O=C1Nc2c(F)cccc2C(c2ccccc2)=N[C@H]1Nc1nnc(-c2nc(C3CCC3)sc2-c2cnc(C3CC3)nc2)o1` [Example 64], for which the EC50 in experiment [1] was more than 800 nM; in experiment [2], less than 400 nM.

Take `Cc1ncc(-c2sc(C3(C(F)(F)F)CC3)nc2-c2nnc(N[C@H]3N=C(c4ccccc4)c4cccc(F)c4NC3=O)o2)cn1` [Example 73]: the concentration giving a half-maximal response (EC50) in experiment [1] and in experiment [2] was less than 400 nM throughout.

On to `CCc1nc(-c2nnc(N[C@H]3N=C(c4ccccc4)c4cccc(F)c4NC3=O)o2)c(-c2cnc(C)nc2)s1` [Example 52], for which the EC50 in experiment [1] and in experiment [2] was less than 400 nM in each case.

For the molecule `O=C1Nc2ccccc2C(c2ccccc2)=NC1Nc1nnc(-c2ncc(C(F)(F)F)cc2-c2cnc(F)nc2)o1` (stereo not drawn) [Example 17], the half-maximal effective concentration (EC50) in experiment [1] and in experiment [2] was more than 800 nM throughout.

`CCc1ncc(-c2sc(C3CCC3)nc2-c2nnc(N[C@H]3N=C(c4ccccc4)c4cccc(F)c4NC3=O)o2)cn1` [Example 58]: the concentration for a half-maximal effect (EC50) in experiment [1] and in experiment [2] was less than 400 nM each time.

In the case of `CCc1ncc(-c2sc(C3(C)CC3)nc2-c2nnc(N[C@@H]3N=C(c4ccccc4)c4cccc(F)c4NC3=O)o2)cn1` [Example 68], the concentration giving a half-maximal response (EC50) in experiment [1] and in experiment [2] was less than 400 nM each time.

Consider `O=C1Nc2c(F)cccc2C(c2ccccc2)=N[C@H]1Nc1nnc(-c2nc(C3(C(F)(F)F)CC3)sc2-c2cnc(C3CC3)nc2)o1` [Example 74], for which the concentration giving a half-maximal response (EC50) was more than 800 nM in experiment [1] and less than 400 nM in experiment [2].

Turning to `Cc1ncc(-c2sc(C3(C)CC3)nc2-c2nnc(N[C@@H]3N=C(c4ccccc4)c4cccc(F)c4NC3=O)o2)cn1` [Example 66], the half-maximal effective concentration (EC50) in experiment [1] is 400 to 800 nM; in experiment [2], less than 400 nM.

For `CC(C)(F)c1ncc(-c2cc(C(F)(F)F)cnc2-c2nnc(NC3N=C(c4ccccc4)c4ccccc4NC3=O)o2)cn1` (stereo not drawn) [Example 12], the half-maximal effective concentration (EC50) in experiment [1] and in experiment [2] was more than 800 nM each time.

With `Cc1ncc(-c2sc(C3CC3)nc2-c2nnc(N[C@H]3N=C(c4ccccc4)c4cccc(F)c4NC3=O)o2)cn1` [Example 56], the EC50 in experiment [1] and in experiment [2] was less than 400 nM each time.

`O=C1Nc2c(F)cccc2C(c2ccccc2)=N[C@@H]1Nc1nnc(-c2nc(C3CC3)sc2-c2cnc(C3CC3)nc2)o1` [Example 48]: the EC50 in experiment [1] and in experiment [2] was less than 400 nM each time.

`CCc1nc(-c2nnc(N[C@@H]3N=C(c4ccccc4)c4cccc(F)c4NC3=O)o2)c(-c2cnc(C)nc2)s1` [Example 51]: the results for the half-maximal effective concentration (EC50) in experiment [1] and in experiment [2] were 400 to 800 nM and less than 400 nM, respectively.

As to `CCc1ncc(-c2cccnc2-c2nnc(NC3N=C(c4ccccc4)c4ccccc4NC3=O)o2)cn1` (stereo not drawn) [Example 15], the 50% effective concentration (EC50) was more than 800 nM in experiment [1] and less than 400 nM in experiment [2].
